Measured values as given in US8415342B2, “Besifloxacin ophthalmic composition for the treatment or control of infection” (Bausch & Lomb Incorporated, priority 2008, dated 2013).
Where “and” joins values, the source holds several entries; their conditions need not be identical. Identical values can stand only once.

Key:
S. pneumoniae DNA gyrase = S. pneumoniae DNA gyrase (Streptococcus pneumoniae serotype 4, UniProt P0A4L9+P72524); experiment: Catalytic inhibition of purified DNA gyrase; type: biochemical
S. pneumoniae DNA gyrase, sequence (P72524 whole entry): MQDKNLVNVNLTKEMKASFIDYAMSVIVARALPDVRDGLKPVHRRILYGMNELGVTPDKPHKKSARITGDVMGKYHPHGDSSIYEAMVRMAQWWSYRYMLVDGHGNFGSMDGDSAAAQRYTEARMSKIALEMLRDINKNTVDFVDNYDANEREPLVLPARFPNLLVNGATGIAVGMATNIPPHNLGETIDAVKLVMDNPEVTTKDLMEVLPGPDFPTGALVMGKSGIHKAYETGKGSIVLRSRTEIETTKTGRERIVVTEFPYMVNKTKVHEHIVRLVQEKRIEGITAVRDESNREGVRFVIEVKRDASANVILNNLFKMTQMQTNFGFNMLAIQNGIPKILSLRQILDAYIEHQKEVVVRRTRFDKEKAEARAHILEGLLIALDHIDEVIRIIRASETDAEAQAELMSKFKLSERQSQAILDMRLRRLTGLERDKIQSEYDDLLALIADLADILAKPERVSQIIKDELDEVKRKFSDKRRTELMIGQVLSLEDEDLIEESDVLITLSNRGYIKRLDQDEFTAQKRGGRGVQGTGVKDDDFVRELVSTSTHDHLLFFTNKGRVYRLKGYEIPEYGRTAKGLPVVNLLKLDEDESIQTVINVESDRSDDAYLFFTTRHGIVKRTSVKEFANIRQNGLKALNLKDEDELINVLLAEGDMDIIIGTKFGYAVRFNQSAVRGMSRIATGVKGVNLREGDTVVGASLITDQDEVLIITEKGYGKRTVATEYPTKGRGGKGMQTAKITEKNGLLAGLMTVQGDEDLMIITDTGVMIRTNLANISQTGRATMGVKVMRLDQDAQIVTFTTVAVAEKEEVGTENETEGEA
S. pneumoniae DNA gyrase, sequence (P0A4L9 whole entry): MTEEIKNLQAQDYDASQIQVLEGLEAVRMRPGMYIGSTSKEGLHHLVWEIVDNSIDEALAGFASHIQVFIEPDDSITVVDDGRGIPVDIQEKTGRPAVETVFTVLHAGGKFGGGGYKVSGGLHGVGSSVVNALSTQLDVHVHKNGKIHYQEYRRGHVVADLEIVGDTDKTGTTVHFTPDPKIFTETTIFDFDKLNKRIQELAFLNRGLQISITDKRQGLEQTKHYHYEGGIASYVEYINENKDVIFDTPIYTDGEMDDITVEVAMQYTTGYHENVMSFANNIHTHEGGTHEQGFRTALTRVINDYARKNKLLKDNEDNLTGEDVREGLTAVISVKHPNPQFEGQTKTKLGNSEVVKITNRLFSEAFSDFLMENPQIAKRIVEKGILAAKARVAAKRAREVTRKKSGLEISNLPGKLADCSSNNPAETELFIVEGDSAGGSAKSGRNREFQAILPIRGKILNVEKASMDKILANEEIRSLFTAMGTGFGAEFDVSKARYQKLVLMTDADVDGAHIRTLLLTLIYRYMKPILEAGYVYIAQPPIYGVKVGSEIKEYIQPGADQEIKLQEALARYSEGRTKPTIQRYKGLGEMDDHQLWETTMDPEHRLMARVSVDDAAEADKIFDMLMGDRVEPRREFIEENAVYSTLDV

[1] = molecular target: T1, S. pneumoniae topoisomerase IV (Streptococcus pneumoniae serotype 4, UniProt P72525+Q59961); type: biochemical; conditions: S. pneumoniae enzymes; concentration that produces 25% linearization of the DNA
T1 sequence (P72525 1-823): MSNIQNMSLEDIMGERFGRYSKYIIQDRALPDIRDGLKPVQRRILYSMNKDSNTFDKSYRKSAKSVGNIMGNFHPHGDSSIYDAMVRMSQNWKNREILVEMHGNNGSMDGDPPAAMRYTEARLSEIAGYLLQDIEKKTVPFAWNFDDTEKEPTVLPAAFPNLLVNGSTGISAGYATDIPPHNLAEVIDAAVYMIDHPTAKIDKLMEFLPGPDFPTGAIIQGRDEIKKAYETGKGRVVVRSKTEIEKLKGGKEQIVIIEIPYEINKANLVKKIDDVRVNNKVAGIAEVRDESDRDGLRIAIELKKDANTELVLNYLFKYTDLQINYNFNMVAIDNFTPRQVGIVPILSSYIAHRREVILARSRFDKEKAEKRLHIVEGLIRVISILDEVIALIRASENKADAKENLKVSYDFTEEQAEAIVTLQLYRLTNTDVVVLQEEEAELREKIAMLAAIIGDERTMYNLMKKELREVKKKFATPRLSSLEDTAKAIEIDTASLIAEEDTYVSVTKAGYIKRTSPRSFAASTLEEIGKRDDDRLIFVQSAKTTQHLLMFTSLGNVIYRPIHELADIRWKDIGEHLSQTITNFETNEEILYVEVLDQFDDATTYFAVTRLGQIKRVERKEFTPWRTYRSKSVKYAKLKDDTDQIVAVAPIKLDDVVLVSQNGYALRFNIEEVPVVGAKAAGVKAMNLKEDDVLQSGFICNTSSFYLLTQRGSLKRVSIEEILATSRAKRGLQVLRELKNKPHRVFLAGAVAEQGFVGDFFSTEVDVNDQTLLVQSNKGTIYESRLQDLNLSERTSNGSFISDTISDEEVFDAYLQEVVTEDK
T1 sequence (Q59961 1-647): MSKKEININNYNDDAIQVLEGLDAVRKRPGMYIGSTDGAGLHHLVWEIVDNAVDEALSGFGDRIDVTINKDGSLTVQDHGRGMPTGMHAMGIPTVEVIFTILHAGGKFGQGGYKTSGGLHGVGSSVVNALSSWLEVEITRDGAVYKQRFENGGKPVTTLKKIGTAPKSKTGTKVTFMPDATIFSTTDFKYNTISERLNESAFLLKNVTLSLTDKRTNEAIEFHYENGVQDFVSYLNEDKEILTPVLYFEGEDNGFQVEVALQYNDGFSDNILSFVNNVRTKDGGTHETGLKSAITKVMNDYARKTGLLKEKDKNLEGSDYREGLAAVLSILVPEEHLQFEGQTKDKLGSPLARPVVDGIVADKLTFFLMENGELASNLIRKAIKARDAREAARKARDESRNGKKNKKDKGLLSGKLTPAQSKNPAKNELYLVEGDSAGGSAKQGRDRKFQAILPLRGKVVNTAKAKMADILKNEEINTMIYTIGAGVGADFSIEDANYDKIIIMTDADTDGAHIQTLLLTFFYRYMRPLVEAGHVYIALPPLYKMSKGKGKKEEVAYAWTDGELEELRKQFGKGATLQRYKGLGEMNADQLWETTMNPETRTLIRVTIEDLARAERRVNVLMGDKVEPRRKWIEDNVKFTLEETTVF

E. coli topoisomerase IV [2] = molecular target: T2, E. coli topoisomerase IV (Escherichia coli, UniProt P0AFI2+P20083); experiment: Catalytic inhibition of purified topoisomerase IV; type: biochemical; conditions: IC50 Topo IV, E. coli enzymes
T2 sequence (P0AFI2 whole entry): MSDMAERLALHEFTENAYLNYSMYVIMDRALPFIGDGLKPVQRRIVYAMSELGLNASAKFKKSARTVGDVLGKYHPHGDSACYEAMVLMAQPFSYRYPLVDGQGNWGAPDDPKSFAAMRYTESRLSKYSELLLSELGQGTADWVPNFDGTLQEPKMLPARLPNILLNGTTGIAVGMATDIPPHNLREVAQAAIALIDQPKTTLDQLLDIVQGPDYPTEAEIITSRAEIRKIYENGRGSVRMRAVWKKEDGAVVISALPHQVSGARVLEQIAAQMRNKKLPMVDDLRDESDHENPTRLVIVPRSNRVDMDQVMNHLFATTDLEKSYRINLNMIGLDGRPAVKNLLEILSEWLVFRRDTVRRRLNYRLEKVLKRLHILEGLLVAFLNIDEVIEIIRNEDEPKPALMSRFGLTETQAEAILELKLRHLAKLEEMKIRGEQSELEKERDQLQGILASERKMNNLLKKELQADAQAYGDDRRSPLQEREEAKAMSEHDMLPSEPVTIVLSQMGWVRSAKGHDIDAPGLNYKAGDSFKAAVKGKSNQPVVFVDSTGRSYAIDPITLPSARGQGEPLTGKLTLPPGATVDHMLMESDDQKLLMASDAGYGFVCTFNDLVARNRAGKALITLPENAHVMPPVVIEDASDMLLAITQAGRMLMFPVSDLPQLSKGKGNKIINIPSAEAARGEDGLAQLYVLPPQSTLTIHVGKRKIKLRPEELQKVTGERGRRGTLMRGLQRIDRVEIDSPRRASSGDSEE
T2 sequence (P20083 whole entry): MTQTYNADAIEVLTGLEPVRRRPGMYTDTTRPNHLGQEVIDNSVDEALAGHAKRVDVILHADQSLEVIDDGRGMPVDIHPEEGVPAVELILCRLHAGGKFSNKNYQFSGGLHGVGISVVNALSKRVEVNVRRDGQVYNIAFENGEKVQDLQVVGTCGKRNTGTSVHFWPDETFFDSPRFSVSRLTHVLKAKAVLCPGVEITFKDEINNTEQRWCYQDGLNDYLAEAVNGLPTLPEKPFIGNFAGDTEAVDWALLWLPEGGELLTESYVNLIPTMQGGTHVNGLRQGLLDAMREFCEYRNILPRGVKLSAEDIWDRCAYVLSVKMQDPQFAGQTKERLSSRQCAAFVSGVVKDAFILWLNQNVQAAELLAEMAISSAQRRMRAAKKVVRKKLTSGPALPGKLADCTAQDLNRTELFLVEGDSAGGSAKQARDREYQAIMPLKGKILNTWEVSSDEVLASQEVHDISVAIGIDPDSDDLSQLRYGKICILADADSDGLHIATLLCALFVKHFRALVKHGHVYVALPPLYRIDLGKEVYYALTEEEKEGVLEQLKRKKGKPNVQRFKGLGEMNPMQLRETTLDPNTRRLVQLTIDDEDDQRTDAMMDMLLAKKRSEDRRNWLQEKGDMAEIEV

E. coli topoisomerase IV [3] = molecular target: T2, E. coli topoisomerase IV; experiment: Cleavable complex stimulation (CC25), topoisomerase IV; type: biochemical; conditions: E. coli enzymes; concentration that produces 25% linearization of the DNA
[4] = Predicted PK/PD ratios in tears with simulated TID dosing (Table 10); design: species or system human; conditions: for Cmax/MIC90, Free / AUC24/MIC90, Free: tears, free besifloxacin (40% bound); for AUC24/MIC90, Free: predicted TID
[5] = Binding to proteins in human plasma; type: in vitro ADME
Description: The relationship between the concentration of besifloxacin in human tear fluid and the concentration required for antimicrobial activity was quantified by calculating the ratios of Cmax/MIC90 and AUC24/MIC90. For the purpose of calculating these PK/PD ratios, a PK model was used to simulate besifloxacin concentrations with a TID dosing regimen. An additional consideration in this analysis is the potential role of protein binding, which could effectively lower the concentration of unbound (free) besifloxacin. The inhibitory effect of protein binding on antibacterial efficacy has been reported for β-lactams; however, there is no general consensus about the role of protein binding on the antibacterial activity of fluoroquinolones (Bergogne-Berezin, 2002; Craig & Ebert, 1989; Drusano, 1988; Merrikin et al., 1983; Turnidge, 1999; Zeitlinger et al., 2008). […] In order to evaluate the potential theoretical maximum impact of protein binding on besifloxacin activity, Cmax/MIC90 and AUC24/MIC90 ratios were calculated based on the PK estimates for total (bound and free) and free (unbound) besifloxacin (Table 10).

[6] = tested on: ocular isolates (S. pneumoniae, S. epidermidis, H. influenzae, and S. aureus); experiment: MBC versus MIC, all recent ocular isolates tested; type: cell-based
Description: The success of in vivo antimicrobial action depends to a large extent on the host's defense mechanisms, which ultimately sequester and kill the microorganisms that have been reduced by the bacteriostatic/bactericidal action of the antibacterial agent. Thus, it is also of interest to profile the bactericidal activity of antimicrobial agents. The assessment of in vitro bactericidal activity can be accomplished in multiple ways, for example, the time-kill method or the determination of the minimum bactericidal concentration (MBC). […] Bactericidal agents are characterized by low MBC:MIC ratios.

H. influenzae = experiment: MIC of clinical trial isolates, Studies 373, 433, 434; type: cell-based; conditions: Haemophilus influenzae, isolates of studies 373, 433, 434; read-out: MIC90
Description: (§1) PFGE testing was performed per standard procedures.
(§2) The antibacterial susceptibility profile of each Visit 1 bacterial isolate was determined for besifloxacin and other antimicrobials.

S. pneumoniae = experiment: as above; type: cell-based; conditions: Streptococcus pneumoniae, isolates of studies 373, 433, 434; read-out: MIC90
Description: as §1, §2

[7] = Staphylococcus aureus (MRSA-CR)
[8] = Staphylococcus aureus (MSSA-CR)
[9] = Staphylococcus aureus (all phenotypes)

With `N[C@@H]1CCCCN(c2c(F)cc3c(=O)c(C(=O)O)cn(C4CC4)c3c2Cl)C1` [Besifloxacin, (R)-(+)-(3-amino-2,3,4,5,6,7-hexahydro-1H-azepin-1-yl)-8-chloro-1-cyclopropyl-6-fluoro-1,4,-dihydro-4-oxo-3-quinolinecarboxylic acid] the “potency relative to ciprofloxacin and moxifloxacin (catalytic inhibition and cleavable complex stimulation)” value (S. pneumoniae DNA gyrase; S. pneumoniae DNA gyrase) was 4- to 16 fold, the IC50 (S. pneumoniae DNA gyrase; S. pneumoniae enzymes) was 2.5 µM and 2.54 µM and the “difference between inhibitory concentrations for DNA gyrase and topoisomerase IV” value (S. pneumoniae DNA gyrase; S. pneumoniae enzymes) was 2.5 fold. For the same compound, the “CC25 Topo IV” value [1] was 1 μM and 0.4 μg/mL, the IC50 (E. coli topoisomerase IV [2]) was 23 µM and 25.4 µM and the “CC25 Topo IV” value (E. coli topoisomerase IV [3]) was 1.4 μM and 0.6 μg/mL. The “AUC24/MIC90, Total” value [4] was 950, the “Cmax/MIC90, Free” value ([4]; Haemophilus influenzae) was 6100 and the “AUC24/MIC90, Free” value ([4]; Haemophilus influenzae) was 38,010. The “Cmax/MIC90, Free” value [4, 7] was 92, the “AUC24/MIC90, Free” value [4, 7] was 570 and the “Cmax/MIC90, Free” value [4, 8] was 183. For the same compound, the “AUC24/MIC90, Free” value [4, 8] was 1140, the “Cmax/MIC90, Free” value [4, 9] was 732 and the “AUC24/MIC90, Free” value [4, 9] was 4561. The “Cmax/MIC90, Free” value ([4]; Staphylococcus epidermidis) was 732, the “AUC24/MIC90, Free” value ([4]; Staphylococcus epidermidis) was 4561 and the “Cmax/MIC90, Free” value ([4]; Streptococcus pneumoniae) was 2928. The “AUC24/MIC90, Free” value ([4]; Streptococcus pneumoniae) was 18,245, the “Cmax/MIC90, Total” value ([4]; human) was 153 and the “bound to proteins in human plasma” value [5] was “approximately 40%”. For the same compound, the “isolates with MBC within 4-fold of the MIC” value [6] was “more than 80%”, the MIC90 (H. influenzae) was 0.06 µg/mL and the MIC90 (S. pneumoniae) was 0.125 µg/mL.
